Assay results: patent US20250303006A1, “BIOCOMPATIBLE ANTISEPTIC COMPOSITION CONTAINING 9-HYDROXYCALABAXANTHONE AND/OR RELATED XANTHONES” (UNIVERSITAT DE LES ILLES BALEARS, priority 2022, published 2025)

Tests used:
C. albicans = assay: Candida albicans culture and proliferation assay; type: cell-based; settings: 0.003% HCX, 24 h
Method: C. albicans was grown from frozen stocks in LB broth (Scharlab), at 37° C. under aerobic conditions in an orbital shaker (180 rpm). […] Fungal suspension without treatment served as negative control (C−). […] The fungal growth rate (μ) was calculated during the exponential growth phase following the equation ln ODt−ln OD0=μ×(t−t0) (n=3).

[1] = test system: human gingival fibroblast cells; assay: LDH cytotoxicity in immortalized human gingival fibroblasts; type: cell-based
Method: Cells were seeded in 48-well plates at a density of 2×10^4 cells/well. When the cells reached confluence, they were treated with different concentrations of HCX, and cytotoxicity was determined.
48 hours after seeding the iHGF cells in 48-well plates, cell inflammation was induced by means of adding 1 μg/ml of P. gingivalis lipopolysaccharide (LPS) (InvivoGen, San Diego, CA, USA) and the cells were treated with different concentrations of HCX (0.00002, 0.0002, 0.002%) in a fibroblast medium with 50 μg/ml of ascorbic acid (Sigma-Aldrich, St. Louis, MO, USA) for 48 hours. Images of the cells were taken with a bright field inverted microscope (Nikon Eclipse TS100) before treatment and 24 hours and 48 hours after treatment.
To estimate the cytotoxicity of the different concentrations of HCX, the presence of lactate dehydrogenase (LDH) in the culture media 48 h after pro-inflammatory stimulation with LPS and treatment with HCX was used as the cell death index. Following the manufacturer's instructions (Cytotoxicity Detection kit, Roche Diagnostics, Mannheim, Germany), LDH activity was determined spectrophotometrically after a 30-minute incubation at room temperature (RT) of 50 μl of culture media and 50 μl of the reaction mixture, measuring nicotinamide adenine dinucleotide (NADH) oxidation at 490 nm in the presence of pyruvate. Results were presented in relation to LDH activity of the media of the cells seeded without treatment (negative control, 0% cell death) and in relation to cells treated with 1% Triton X-100 (positive control, 100% death) using the following equation: Cytotoxicity (%)=[(expected value−negative control)/(positive control−negative control)]×100.
Different hydrogel formulations with and without 0.05% of HCX (HA, GelMa, Alginate and HPMC) and commercial gel containing 0.2% chlorhexidine and unmodified HA (Periokin Hyaluronic 1%, Laboratorios Kin, Commercial HA 0.2% CHX) were used for studies with gingival fibroblasts and S. epidermidis. Cells and bacteria without hydrogels served as negative control (C−). Gels at a concentration of 5% (v/v) were used for cell and bacterial studies.
Immortalized human gingival fibroblasts were cultured like in experiment 1 of section 1.2. The cells were treated with different hydrogel formulations with and without 0.05% of HCX (HA, GelMa, Alginate and HPMC) and commercial gel containing 0.2% chlorhexidine and unmodified HA (Periokin Hyaluronic 1%, Laboratorios Kin, commercial HA 0.2% CHX) in a fibroblast medium for 24 hours (n=4). Cell cytotoxicity was measured, like in experiment 1 of section 1.4.
16.1. […]
Immortalized human gingival fibroblasts were cultured like in experiment 1 of section 1.2. […] Cell cytotoxicity was measured, like in experiment 1 of section 1.4.

## COc1c(O)cc2oc3cc4c(c(O)c3c(=O)c2c1CC=C(C)C)C=CC(C)(C)O4 [HCX, 9-hydroxycalabaxanthone]
C. albicans
  fungal eliminated: 22%
[1]; HCX 0.00002, 0.0002, 0.002%, 48 h, LPS-stimulated iHGF
  cytotoxicity evaluated by activity of lactate dehydrogenase (LDH) released into the medium: not observed
[1]; formulated in solution
  concentration that can be applied to cells and tissues: up to 0.002%
